Results: paper PMC3823413 (Journal of Cellular and Molecular Medicine, 2008)

Tests used:
[1] = system: fMLP-stimulated H2O2 production in human PMN; experiment: Adenosine inhibition of fMLP-stimulated H2O2 production in human PMN; type: cell-based; settings: for IC50: Homo sapiens
[2] = system: human PMN; settings: H2O2 production; PMN incubated with mediator for 6 hrs; mean (± S.E.M.)
[3] = system: human PMN; experiment: Vitality of human PMN after incubation with inflammatory mediators; type: cell-based; settings: dead cells after 6 hrs incubation with mediator; mean (± S.E.M.)
[4] = PMN pre-incubated with IFN-γ 6 hrs
[5] = PMN pre-incubated with IL-1 6 hrs
[6] = PMN pre-incubated with IL-8 6 hrs
[7] = PMN pre-incubated with LPS 10 μg/ml 6 hrs
[8] = PMN pre-incubated with TNF-α 6 hrs

## Nc1ncnc2c1ncn2[C@@H]1O[C@H](CO)[C@@H](O)[C@H]1O [adenosine]
[1]; 6 h, control (native) PMN, culture medium 6 hrs
  IC50: 75 nM
[1]; [4]
  IC50: 123 nM
  Max. inhibition (6 S.E.M.): 86.8 (± 4.3) %
[1]; [5]
  IC50: 40 nM
  Max. inhibition (6 S.E.M.): 78.6 (± 2.5) %
[1]; [6]
  IC50: 43 nM
  Max. inhibition (6 S.E.M.): 76.3 (± 5.8) %
[1]; [7]
  IC50: 332 nM
  Max. inhibition (6 S.E.M.): 75.2 (± 2.5) %
[1]; [8]
  IC50: 106 nM
  Max. inhibition (6 S.E.M.): 84.8 (± 3.6) %
[1]; LPS-incubated PMN
  concentration reaching maximum inhibition: 10^−5 M
[1]; LPS-treated (6 hrs) versus native human PMN
  increase of the IC50 on the H2O2 production: 4.4 fold
[1]; control (native) PMN, culture medium 6 hrs
  Max. inhibition (6 S.E.M.): 78.8 (± 1.5) %
[1]; untreated neutrophils
  concentration reaching maximum inhibitory effects: 10^−6 M

## IFN-γ: cytokine used for PMN stimulation
[2]
  Spontaneous activity: 36 (± 2.37) MFI

## IL-8: cytokine used for PMN stimulation
[2]
  Spontaneous activity: 30 (± 1.76) MFI
[3]
  PI-positive PMN: 1.74 (± 0.36) %

## TNF-α
[2]
  Spontaneous activity: 34 (± 1.51) MFI
[3]
  PI-positive PMN: 2.89 (± 0.39) %

B1: IFN-γ: cytokine used for PMN stimulation (protein, UniProt P01579 24-161, looked up)
Interferon gamma: QDPYVKEAENLKKYFNAGHSDVADNGTLFLGILKNWKEESDRKIMQSQIVSFYFKLFKNFKDDQSIQKSVETIKEDMNVKFFNSNKKKRDDFEKLTNYSVTDLNVQRKAIHELIQVMAELSPAAKTGKRKRSQMLFRG
[3]
  PI-positive PMN: 2.76 (± 0.37) %
